Experiments:
Type in all cases: in vivo
Echinochloa crus-galli = experiment: Paddy herbicidal activity test; conditions: irrigated pot, treated at 3.5 leaf stage of Echinochloa crus-galli, 30 days at 30° C.
Method: (§1) Rice paddy soil was filled into a 1/10000 are pot followed by the addition of suitable amounts of water and chemical fertilizer, kneading, seeding with Echinochloa crus-galli, Monochoria vaginalis and Scirpus juncoides and maintaining in an irrigated state at a water depth of 3 cm. Wettable powders of Target Compound (I) shown in Table 1 prepared in compliance with the preparation examples were diluted with a suitable amount of water, rice plants in the 2.0 leaf stage were transplanted during 3.5 leaf stage of Echinochloa crus-galli, and treated by dropping in chemical in the prescribed amount per 10 are using a pipette. After treating for 30 days in a glass greenhouse at an average atmospheric temperature of 30° C., the herbicidal efficacy thereof was investigated. Evaluation of herbicidal efficacy was carried out by comparing growth inhibition rate (%) with an untreated group, while evaluation of phytotoxicity was carried out by comparing growth inhibition rate (%) with the state of a complete eradication group, and were evaluated at 11 levels indicated below.

Monochoria vaginalis = experiment: Paddy herbicidal activity test; conditions: irrigated pot, treated at 3.5 leaf stage of Echinochloa crus-galli, 30 days at 30° C.
Method: as §1

Scirpus juncoides = experiment: Paddy herbicidal activity test; conditions: irrigated pot, treated at 3.5 leaf stage of Echinochloa crus-galli, 30 days at 30° C.
Method: as §1

Oryza sativa = experiment: Paddy herbicidal activity test, phytotoxicity to transplanted rice; conditions: rice transplanted at 2.0 leaf stage, 30 days at 30° C.
Method: as §1

Amaranthus retroflexus [1] = experiment: Farming soil treatment test; conditions: soil surface spray prior to weed growth, 30 days at 30° C.
Method: (§2) Field soil was filled into a 1/6000 are pot followed by seeding with Digitaria ciliaris, Chenopodium album and Amaranthus retroflexus and covering with soil. Wettable powders of compounds of formula (I) shown in Table 1 prepared in compliance with the preparation examples were diluted with water to the prescribed amount of chemical and uniformly sprayed onto each soil surface layer using 100 liters of sprayed water per 10 are prior to weed growth following seeding. After treating for 30 days in a glass greenhouse at an average atmospheric temperature of 30° C., the herbicidal efficacy thereof was investigated. Evaluation of herbicidal efficacy was carried out in the same manner as the above-mentioned Test Example 1.

Chenopodium album [2] = experiment: Farming soil treatment test; conditions: soil surface spray prior to weed growth, 30 days at 30° C.
Method: as §2

Digitaria ciliaris [3] = experiment: Farming soil treatment test; conditions: soil surface spray prior to weed growth, 30 days at 30° C.
Method: as §2

Amaranthus retroflexus [4] = experiment: Weed foliar treatment test (Test 3, 1.0 to 2.0 leaf stage); conditions: foliar spray at 1.0 to 2.0 leaf stage of Digitaria ciliaris, 3 weeks at 25° C.
Method: (§3) Soil was filled into a 1/6000 are pot followed by seeding with Digitaria ciliaris, Chenopodium album and Amaranthus retroflexus, covering with soil, and cultivating in a glass greenhouse at an average atmospheric temperature of 25° C. Wettable powders of Target Compound (I) shown in Table 1 prepared in compliance with the preparation examples were diluted with water to the prescribed amount of chemical and uniformly sprayed onto the weeds using 150 liters of sprayed water per 10 are when Digitaria ciliaris had grown to the 1.0 to 2.0 leaf stage. After treating for 3 weeks in a glass greenhouse at an average atmospheric temperature of 25° C., the herbicidal efficacy thereof was investigated. Evaluation of herbicidal efficacy was carried out in the same manner as the above-mentioned Test Example 1.

Chenopodium album [5] = experiment: as above; conditions: foliar spray at 1.0 to 2.0 leaf stage of Digitaria ciliaris, 3 weeks at 25° C.
Method: as §3

Digitaria ciliaris [6] = experiment: as above; conditions: foliar spray at 1.0 to 2.0 leaf stage of Digitaria ciliaris, 3 weeks at 25° C.
Method: as §3

Digitaria ciliaris [7] = experiment: Weed foliar treatment test (Test 4, 4.0 to 5.0 leaf stage); conditions: 10 g a.i./10 a; foliar spray at 4.0 to 5.0 leaf stage of Digitaria ciliaris (plant height 10 cm to 15 cm); 20 days at 25° C.
Method: (§4) Field soil was filled into a 1/4500 are pot followed by seeding with Digitaria ciliaris and Galinsoga parviflora, covering with soil and cultivating in a glass greenhouse at an average atmospheric temperature of 25° C. Wettable powders of Target Compound (I) shown in Table 1 prepared in compliance with the preparation examples were diluted with water to the prescribed amount of chemical and uniformly sprayed onto the weeds using 100 liters of sprayed water per 10 are when Digitaria ciliaris had grown to the 4.0 to 5.0 leaf stage (plant height: 10 cm to 15 cm). After treating for 20 days in a glass greenhouse at an average atmospheric temperature of 25° C., the herbicidal efficacy thereof was investigated. Evaluation of herbicidal efficacy was carried out in the same manner as the above-mentioned Test Example 1.

Galinsoga parviflora = experiment: as above; conditions: 10 g a.i./10 a; foliar spray at 4.0 to 5.0 leaf stage of Digitaria ciliaris (plant height 10 cm to 15 cm); 20 days at 25° C.
Method: as §4

Compound: O=C(Nc1c([N+](=O)[O-])cnn1-c1nn2c(c1Cl)CCCC2)c1ccccc1 [Control agent 2.19, reference compound]
- herbicidal efficacy, Echinochloa crus-galli (Echinochloa crus-galli; 1 g a.i./10 a): 3 (3: 30% to less than 40%)
- herbicidal efficacy, Echinochloa crus-galli (Echinochloa crus-galli; 5 g a.i./10 a): 4 (4: 40% to less than 50%)
- herbicidal efficacy, Monochoria vaginalis (Monochoria vaginalis; 1 g a.i./10 a): 1 (1: 10% to less than 20%)
- herbicidal efficacy, Monochoria vaginalis (Monochoria vaginalis; 5 g a.i./10 a): 1 (1: 10% to less than 20%)
- herbicidal efficacy, Scirpus juncoides (Scirpus juncoides; 1 g a.i./10 a): 1 (1: 10% to less than 20%)
- herbicidal efficacy, Scirpus juncoides (Scirpus juncoides; 5 g a.i./10 a): 2 (2: 20% to less than 30%)
- phytotoxicity, Oryza sativa (Oryza sativa; 1 g a.i./10 a): 1 (1: 10% to less than 20%)
- phytotoxicity, Oryza sativa (Oryza sativa; 5 g a.i./10 a): 1 (1: 10% to less than 20%)
- herbicidal efficacy, Amaranthus retroflexus (Amaranthus retroflexus [1]; 5 g a.i./10 a): 1 (1: 10% to less than 20%)
- herbicidal efficacy, Amaranthus retroflexus (Amaranthus retroflexus [1]; 10 g a.i./10 a): 3 (3: 30% to less than 40%)
- herbicidal efficacy, Chenopodium album (Chenopodium album [2]; 5 g a.i./10 a): 3 (3: 30% to less than 40%)
- herbicidal efficacy, Chenopodium album (Chenopodium album [2]; 10 g a.i./10 a): 4 (4: 40% to less than 50%)
- herbicidal efficacy, Digitaria ciliaris (Digitaria ciliaris [3]; 5 g a.i./10 a): 0 (0 (exponent): 0% to less than 10% (growth inhibition rate))
- herbicidal efficacy, Digitaria ciliaris (Digitaria ciliaris [3]; 10 g a.i./10 a): 2 (2: 20% to less than 30%)
- herbicidal efficacy, Amaranthus retroflexus (Amaranthus retroflexus [4]; 5 g a.i./10 a): 4 (4: 40% to less than 50%)
- herbicidal efficacy, Amaranthus retroflexus (Amaranthus retroflexus [4]; 10 g a.i./10 a): 4 (4: 40% to less than 50%)
- herbicidal efficacy, Chenopodium album (Chenopodium album [5]; 5 g a.i./10 a): 4 (4: 40% to less than 50%)
- herbicidal efficacy, Chenopodium album (Chenopodium album [5]; 10 g a.i./10 a): 5 (5: 50% to less than 60%)
- herbicidal efficacy, Digitaria ciliaris (Digitaria ciliaris [6]; 5 g a.i./10 a): 1 (1: 10% to less than 20%)
- herbicidal efficacy, Digitaria ciliaris (Digitaria ciliaris [6]; 10 g a.i./10 a): 2 (2: 20% to less than 30%)
- herbicidal efficacy, Digitaria ciliaris (Digitaria ciliaris [7]): 1 (1: 10% to less than 20%)
- herbicidal efficacy, Galinsoga parviflora (Galinsoga parviflora): 3 (3: 30% to less than 40%)

Reference: patent publication US10165776B2, “Substituted pyrazolylpyrazole derivative and use of same as herbicide” (KYOYU AGRI CO., LTD., priority 2015, dated 2019)
